Assay results taken from ChEMBL document CHEMBL2029203, “Discovery of potent antimicrobial peptide analogs of Ixosin-B” (Bioorg Med Chem Lett, 2012).
Converted amounts (≈) assume the structure as drawn. Residues, ends and D or L forms follow the SMILES beside them.

Experiments:
[1] = tested on: Pseudomonas aeruginosa; assay: Antimicrobial activity against Pseudomonas aeruginosa ATCC 27853 after 18 to 20 hrs by spectrophotometry; assay type: functional
[2] = tested on: Staphylococcus aureus; assay: Antimicrobial activity against Staphylococcus aureus ATCC 25923 after 18 to 20 hrs by spectrophotometry; assay type: functional
[3] = tested on: Escherichia coli; assay: Antimicrobial activity against Escherichia coli ATCC 25922 after 18 to 20 hrs by spectrophotometry; assay type: functional
[4] = Toxicity against human erythrocytes assessed as hemolysis at 100 uM after 1 hr by spectrophotometry; assay type: cell-based, Erythrocyte; details: read-out: Activity
[5] = tested on: Candida albicans; assay: Antimicrobial activity against Candida albicans; assay type: functional
[6] = tested on: Escherichia coli; assay: Antimicrobial activity against Escherichia coli; assay type: functional
[7] = tested on: Staphylococcus aureus; assay: Antimicrobial activity against Staphylococcus aureus; assay type: functional

SMILES	MIC [1] [µM]	MIC [2] [µM]	MIC [3] [µM]	hemolysis at 1 h, 100 µM [4] [%]	MIC [5] [µg/mL]	MIC [6] [µg/mL]	MIC [7] [µg/mL]
CC(C)C[C@H](NC(=O)[C@H](CCCNC(=N)N)NC(=O)[C@@H](N)CCCCN)C(=O)N[C@@H](CCCNC(=N)N)C(=O)N[C@@H](CCCNC(=N)N)C(=O)N[C@H](C(=O)N[C@@H](Cc1c[nH]c2ccccc12)C(=O)N[C@@H](CCCNC(=N)N)C(=O)N[C@@H](CCCNC(=N)N)C(=O)N[C@@H](Cc1c[nH]c2ccccc12)C(=O)N[C@@H](CCCNC(=N)N)C(N)=O)C(C)C (H-KRLRRVWRRWR-NH2)	20 (≈ 33.3 µg/mL)	5 (≈ 8.34 µg/mL)	30 (≈ 50 µg/mL)	3	–	–	–
CC(C)[C@H](NC(=O)[C@H](CC(=O)O)NC(=O)[C@H](CO)NC(=O)[C@@H](N)CCCCN)C(=O)N[C@@H](CCCNC(=N)N)C(=O)N[C@@H](CCCNC(=N)N)C(=O)N[C@@H](Cc1c[nH]c2ccccc12)C(=O)N[C@@H](CCCNC(=N)N)C(=O)N[C@@H](CO)C(=O)N[C@@H](CCCNC(=N)N)C(=O)N[C@@H](Cc1ccc(O)cc1)C(N)=O (H-KSDVRRWRSRY-NH2)	> 100	> 100	> 100	–	–	–	–
CC(C)C[C@H](NC(=O)[C@H](CO)NC(=O)[C@@H](N)CCCCN)C(=O)N[C@@H](CCCNC(=N)N)C(=O)N[C@@H](CCCNC(=N)N)C(=O)N[C@H](C(=O)N[C@@H](Cc1c[nH]c2ccccc12)C(=O)N[C@@H](CCCNC(=N)N)C(=O)N[C@@H](CO)C(=O)N[C@@H](Cc1c[nH]c2ccccc12)C(=O)N[C@@H](CCCNC(=N)N)C(N)=O)C(C)C (H-KSLRRVWRSWR-NH2)	40 (≈ 61.2 µg/mL)	60 (≈ 91.7 µg/mL)	30 (≈ 45.9 µg/mL)	0	–	–	–
CC(C)C[C@H](NC(=O)[C@H](CO)NC(=O)[C@@H](N)CCCCN)C(=O)N[C@H](C(=O)N[C@@H](CCCNC(=N)N)C(=O)N[C@@H](CCCNC(=N)N)C(=O)N[C@@H](Cc1c[nH]c2ccccc12)C(=O)N[C@@H](CCCNC(=N)N)C(=O)N[C@@H](CO)C(=O)N[C@@H](CCCNC(=N)N)C(=O)N[C@@H](Cc1c[nH]c2ccccc12)C(N)=O)C(C)C (H-KSLVRRWRSRW-NH2)	40 (≈ 61.2 µg/mL)	30 (≈ 45.9 µg/mL)	30 (≈ 45.9 µg/mL)	0	–	–	–
CC(C)C[C@H](NC(=O)[C@H](Cc1c[nH]c2ccccc12)NC(=O)[C@@H](N)CCCCN)C(=O)N[C@@H](CCCNC(=N)N)C(=O)N[C@@H](CCCNC(=N)N)C(=O)N[C@H](C(=O)N[C@@H](Cc1c[nH]c2ccccc12)C(=O)N[C@@H](CCCNC(=N)N)C(=O)N[C@@H](Cc1c[nH]c2ccccc12)C(=O)N[C@@H](Cc1c[nH]c2ccccc12)C(=O)N[C@@H](CCCNC(=N)N)C(N)=O)C(C)C (H-KWLRRVWRWWR-NH2)	20 (≈ 34.5 µg/mL)	2.5 (≈ 4.32 µg/mL)	15 (≈ 25.9 µg/mL)	100	–	–	–
CC[C@H](C)[C@H](NC(=O)CNC(=O)[C@H](CO)NC(=O)[C@H](CCCNC(=N)N)NC(=O)[C@@H](NC(=O)CNC(=O)[C@H](Cc1c[nH]c2ccccc12)NC(=O)[C@@H](N)CC(C)C)[C@@H](C)O)C(=O)N[C@@H](CCC(N)=O)C(=O)N1CCC[C@H]1C(=O)N[C@@H](CCC(=O)O)C(=O)N[C@@H](CCC(N)=O)C(=O)N[C@@H](Cc1cnc[nH]1)C(N)=O (H-LWGTRSGIQPEQH-NH2)	> 100	> 100	> 100	–	–	–	–
CC(C)[C@H](NC(=O)[C@H](CC(=O)O)NC(=O)[C@H](CO)NC(=O)[C@H](CCCCN)NC(=O)CNC(=O)[C@H](CO)NC(=O)[C@H](CO)NC(=O)[C@H](Cc1cnc[nH]1)NC(=O)[C@@H](N)CCC(N)=O)C(=O)N[C@@H](CCCNC(=N)N)C(=O)N[C@@H](CCCNC(=N)N)C(=O)N[C@@H](Cc1c[nH]c2ccccc12)C(N)=O (H-QHSSGKSDVRRW-NH2)	> 100	> 100	> 100	–	–	–	–
CC[C@H](C)[C@H](NC(=O)CNC(=O)[C@H](CO)NC(=O)[C@H](CCCNC(=N)N)NC(=O)[C@@H](NC(=O)CNC(=O)[C@H](Cc1c[nH]c2ccccc12)NC(=O)[C@H](CC(C)C)NC(=O)[C@H](CC(=O)O)NC(=O)[C@@H](NC(=O)[C@H](CCCCN)NC(=O)[C@H](CC(C)C)NC(=O)[C@@H](N)CCC(N)=O)C(C)C)[C@@H](C)O)C(N)=O (H-QLKVDLWGTRSGI-NH2)	> 100	> 100	> 100	–	–	–	–
CC[C@H](C)[C@H](NC(=O)CNC(=O)[C@H](CO)NC(=O)[C@H](CCCNC(=N)N)NC(=O)[C@@H](NC(=O)CNC(=O)[C@H](Cc1c[nH]c2ccccc12)NC(=O)[C@H](CC(C)C)NC(=O)[C@H](CC(=O)O)NC(=O)[C@@H](NC(=O)[C@H](CCCCN)NC(=O)[C@H](CC(C)C)NC(=O)[C@@H](N)CCC(N)=O)C(C)C)[C@@H](C)O)C(=O)N[C@@H](CCC(N)=O)C(=O)N1CCC[C@H]1C(=O)N[C@@H](CCC(=O)O)C(=O)N[C@@H](CCC(N)=O)C(=O)N[C@@H](Cc1cnc[nH]1)C(=O)N[C@@H](CO)C(=O)N[C@@H](CO)C(=O)NCC(=O)N[C@@H](CCCCN)C(=O)N[C@@H](CO)C(=O)N[C@@H](CC(=O)O)C(=O)N[C@H](C(=O)N[C@@H](CCCNC(=N)N)C(=O)N[C@@H](CCCNC(=N)N)C(=O)N[C@@H](Cc1c[nH]c2ccccc12)C(=O)N[C@@H](CCCNC(=N)N)C(=O)N[C@@H](CO)C(=O)N[C@@H](CCCNC(=N)N)C(=O)N[C@@H](Cc1ccc(O)cc1)C(N)=O)C(C)C [Ixosin-B-amide] (H-QLKVDLWGTRSGIQPEQHSSGKSDVRRWRSRY-NH2)	> 80	80 (≈ 305 µg/mL)	80 (≈ 305 µg/mL)	0	7.5 (≈ 1.97 µM)	15 (≈ 3.93 µM)	2.5 (≈ 0.656 µM)
CC1(C)S[C@@H]2[C@H](NC(=O)Cc3ccccc3)C(=O)N2[C@H]1C(=O)O [PENICILLIN G]	> 100	0.5 (≈ 0.167 µg/mL)	> 100	–	–	–	–
